Measurements as given in US20160075682A1, “INHIBITORS OF NICOTINAMIDE PHOSPHORIBOSYLTRANSFERASE, COMPOSITIONS, PRODUCTS AND USES THEREOF” (UNIVERSITÀ DEGLI STUDI DEL PIEMONTE ORIENTALE "AMEDEO …, priority 2013, published 2016).

Assay: Microsomal stability with rat liver microsomes
Type: in vitro ADME, Male Wistar rat
Conditions: 50 μM substrate, 1.0 mg/mL protein, 60 minutes at 37° C., pH 7.4
Experimental: Male Wistar rat liver microsomes (RLM), (protein concentration: 25 mg/ml determined using the Omura and Sato method, total P450: 0.64 nmol/mg protein) were used throughout this study and prepared using an internal protocol. The cryopreserved pooled human liver microsomes (HLM), (pooled mixed sex, ten individual donors, protein concentration: 20 mg/ml, total P450: 0.36 nmol/mg) were purchased from BD Gentest™ (Woburn, Mass.) and used throughout this study.
The standard incubation mixture (1 ml final volume), was carried out in a 50 mM TRIS (Tris[hydroxymethyl]aminomethane) buffer (pH 7.4) containing 10 μl of acetonitrile (1% of total volume), and 50 μM substrate compounds. After pre-equilibration of the mixture, an appropriate volume of RLM or HLM suspension was added to give a final protein concentration of 1.0 mg/mL. The mixture was shaken for 60 minutes at 37° C. Control incubations were carried out without microsomes. Each incubation was stopped by addition of 1 ml ice-cold acetonitrile, vortexed and centrifuged at 11,000 r.p.m. for 5 min. The supernatants were analysed by LC-DAD-UV and LC-ESI-MS systems to determine the metabolic stability (% substrate residue) and the structure of metabolites respectively (Table 1).
A Shimadzu HPLC system (Shimadzu, Kyoto, Japan), consisting of two LC-10AD Vp module pumps, an SLC-10A Vp system controller, an SIL-10AD Vp autosampler, and a DGU-14-A on-line degasser were used for the analysis. Chromatographic separation was performed on a Phenomenex Luna C18(2) 150×4.6 mm (5 μm) (Phenomenex srl, Castel Bolognese, Italy) as a stationary phase protected by a C18 SecurityGuard (Phenomenex srl, Castel Bolognese, Italy). The SPD-M10Avp photodiode array detector was used to detect the analytes. LC-Solution 1.24 software was used to process the chromatograms. Aliquots (20 μL) of supernatants obtained from incubations were injected onto the HPLC system and eluted with a mobile phase (flow rate 1.0 mL/min) consisting of a A: 0.5% formic acid solution, B: acetonitrile/methanol 8:2. A Thermo Finningan LCQ Deca XP plus system equipped with a quaternary pump, a Surveyor AS autosampler, a Surveyor photodiode array detector and a vacuum degasser was used for LC/MS analyses (Thermo Electron Corporation, Waltham, Mass.). All the chromatographic separations were performed on a Phenomenex Luna C18(2)150×2 mm (4 μm) (kept at a 35° C.) as a stationary phase protected by a C18 SecurityGuard (Phenomenex srl, Castel Bolognese, Italy). Aliquots (2.0 μl) of supernatants obtained from incubations were injected onto the system and eluted with a mobile phase (flow rate 0.2 ml/min) consisting of a A: 0.2% formic acid solution, B: acetonitrile/methanol 8:2. The eluate was injected into the electrospray ion source (ESI) and MS and MS^n spectra were acquired and processed using Xcalibur® software. The operating conditions on the ion trap mass spectrometer were as follows: Positive mode, spray voltage, 5.30 kV; source current, 80 μA; capillary temperature, 350° C.; capillary voltage, 21.00 V; tube lens offset, 15.00 V; multipole 1 offset, −5.75 V; multipole 2 offset, −9.00 V; sheath gas flow (N2), 55 Auxiliary Units.

| RLM stability % substrate residue (area peak) | SMILES |
| --- | --- |
| >98% | c1ccc(-c2ccccc2OCCCCCCn2cc(-c3cccnc3)nn2)cc1 [3-(1-(6-([1,1′-biphenyl]-2-yloxy)hexyl)-1H-1,2,3-triazol-4-yl)pyridine] |
| >99% | O=C(NCCCCCCCn1cc(-c2cccnc2)nn1)c1ccccc1-c1ccccc1 [N-(7-(4-(pyridin-3-yl)-1H-1,2,3-triazol-1-yl)heptyl)-[1,1′-biphenyl]-2-carboxamide] |
